Source: ChEMBL document CHEMBL3994638, “The juxtamembrane region of TrkA kinase is critical for inhibitor selectivity” (Bioorg Med Chem Lett, 2017)

Tests used:
[1] = molecular target: BDNF/NT-3 growth factors receptor (Homo sapiens, UniProt Q16620); assay: Inhibition of recombinant human TrkB expressed in DHFR deficient CHO cells assessed as inhibition of human brain-derived neurotrophic factor-induced calcium influx by Fluo-4 AM dye based assay; format: cell-based
[2] = molecular target: T1, High affinity nerve growth factor receptor (Homo sapiens, UniProt P04629); assay: Inhibition of juxtamembrane region containing recombinant human N-terminal His6-tagged/GST-tagged TrkA (473 to 796 residues) expressed in baculovirus infected Hi5 cells using TK substrate after 60 mins by HTRF assay
[3] = molecular target: T1, High affinity nerve growth factor receptor; assay: Inhibition of juxtamembrane region deficient recombinant human N-terminal His6-tagged/GST-tagged TrkA (498 to 796 residues) expressed in baculovirus infected Hi5 cells using TK substrate after 60 mins by HTRF assay
[4] = molecular target: T1, High affinity nerve growth factor receptor; assay: Inhibition of recombinant human TrkA expressed in DHFR deficient CHO cells assessed as inhibition of human beta-nerve growth factor-induced calcium influx by Fluo-4 AM dye based assay; format: cell-based
[5] = molecular target: NT-3 growth factor receptor (Homo sapiens, UniProt Q16288); assay: Inhibition of recombinant human TrkC expressed in DHFR deficient CHO cells assessed as inhibition of human neurotrophin-3-induced calcium influx by Fluo-4 AM dye based assay; format: cell-based
NT-3 growth factor receptor, sequence (Q16288 whole entry): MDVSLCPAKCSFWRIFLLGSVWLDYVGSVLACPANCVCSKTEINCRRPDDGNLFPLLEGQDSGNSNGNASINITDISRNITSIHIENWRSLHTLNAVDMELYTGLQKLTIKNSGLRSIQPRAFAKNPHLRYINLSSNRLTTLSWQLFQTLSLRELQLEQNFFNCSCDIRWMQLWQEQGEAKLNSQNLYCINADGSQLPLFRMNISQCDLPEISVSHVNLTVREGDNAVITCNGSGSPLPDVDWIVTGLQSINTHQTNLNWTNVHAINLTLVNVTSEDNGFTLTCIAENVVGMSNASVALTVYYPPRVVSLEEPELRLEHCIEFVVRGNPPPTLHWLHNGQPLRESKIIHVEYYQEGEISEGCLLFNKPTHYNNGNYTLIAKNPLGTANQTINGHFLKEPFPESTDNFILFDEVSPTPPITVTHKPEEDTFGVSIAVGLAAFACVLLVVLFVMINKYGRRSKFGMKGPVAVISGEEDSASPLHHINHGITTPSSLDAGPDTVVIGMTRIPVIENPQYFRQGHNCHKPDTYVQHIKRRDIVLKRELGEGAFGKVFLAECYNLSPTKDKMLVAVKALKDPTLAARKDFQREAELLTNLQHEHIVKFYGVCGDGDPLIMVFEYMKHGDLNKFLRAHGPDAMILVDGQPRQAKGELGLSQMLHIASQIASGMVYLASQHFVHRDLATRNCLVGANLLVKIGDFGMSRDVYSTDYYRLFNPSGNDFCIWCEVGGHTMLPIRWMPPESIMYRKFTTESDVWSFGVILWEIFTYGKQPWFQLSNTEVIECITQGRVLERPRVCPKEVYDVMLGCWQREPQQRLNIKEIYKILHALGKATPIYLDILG

T1 sequence (P04629 whole entry, the tested form may be a part): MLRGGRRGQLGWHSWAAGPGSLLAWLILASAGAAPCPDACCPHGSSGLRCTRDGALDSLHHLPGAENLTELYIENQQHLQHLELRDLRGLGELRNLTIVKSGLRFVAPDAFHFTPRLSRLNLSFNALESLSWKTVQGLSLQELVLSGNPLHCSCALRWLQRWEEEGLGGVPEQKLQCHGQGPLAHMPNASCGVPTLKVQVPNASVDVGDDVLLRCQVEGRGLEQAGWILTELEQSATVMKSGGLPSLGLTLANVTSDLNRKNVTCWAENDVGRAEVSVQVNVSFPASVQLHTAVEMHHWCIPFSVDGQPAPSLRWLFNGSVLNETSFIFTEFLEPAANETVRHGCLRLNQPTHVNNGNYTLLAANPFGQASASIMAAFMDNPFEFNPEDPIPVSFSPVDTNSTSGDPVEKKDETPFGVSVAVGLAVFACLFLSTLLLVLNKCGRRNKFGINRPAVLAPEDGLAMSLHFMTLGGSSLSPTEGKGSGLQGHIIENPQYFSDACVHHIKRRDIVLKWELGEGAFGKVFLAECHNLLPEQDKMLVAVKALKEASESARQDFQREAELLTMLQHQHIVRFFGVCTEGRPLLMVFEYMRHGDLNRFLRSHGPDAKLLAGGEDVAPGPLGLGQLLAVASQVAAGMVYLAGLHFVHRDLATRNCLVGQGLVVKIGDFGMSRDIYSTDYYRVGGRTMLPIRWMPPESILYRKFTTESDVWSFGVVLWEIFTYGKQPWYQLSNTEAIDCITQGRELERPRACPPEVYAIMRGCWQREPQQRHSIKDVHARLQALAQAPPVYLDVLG
BDNF/NT-3 growth factors receptor, sequence (Q16620 whole entry, the tested form may be a part): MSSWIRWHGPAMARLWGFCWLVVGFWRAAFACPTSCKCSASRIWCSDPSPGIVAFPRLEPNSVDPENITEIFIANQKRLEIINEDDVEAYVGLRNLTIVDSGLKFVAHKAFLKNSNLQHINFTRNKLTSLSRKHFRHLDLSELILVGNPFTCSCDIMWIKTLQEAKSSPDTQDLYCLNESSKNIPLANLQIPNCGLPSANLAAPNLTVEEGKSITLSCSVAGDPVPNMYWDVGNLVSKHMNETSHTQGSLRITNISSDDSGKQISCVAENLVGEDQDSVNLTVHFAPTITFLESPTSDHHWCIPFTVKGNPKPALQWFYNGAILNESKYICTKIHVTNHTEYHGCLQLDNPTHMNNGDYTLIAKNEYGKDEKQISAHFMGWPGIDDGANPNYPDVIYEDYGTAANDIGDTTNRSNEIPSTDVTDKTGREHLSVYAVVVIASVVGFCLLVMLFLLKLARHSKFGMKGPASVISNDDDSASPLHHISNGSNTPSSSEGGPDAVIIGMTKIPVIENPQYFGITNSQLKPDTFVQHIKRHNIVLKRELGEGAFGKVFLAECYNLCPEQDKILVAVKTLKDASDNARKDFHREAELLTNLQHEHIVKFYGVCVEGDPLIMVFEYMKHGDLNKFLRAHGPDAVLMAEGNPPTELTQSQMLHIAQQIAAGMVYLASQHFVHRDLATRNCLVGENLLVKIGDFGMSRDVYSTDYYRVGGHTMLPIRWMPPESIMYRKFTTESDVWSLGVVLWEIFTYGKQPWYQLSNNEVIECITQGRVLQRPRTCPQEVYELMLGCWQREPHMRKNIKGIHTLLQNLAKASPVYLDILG

SMILES	IC50 [1]	IC50 [2]	IC50 [3]	IC50 [4]	IC50 [5]
COc1cc(-c2cn(CC(=O)Nc3cc(C4CC4)nn3-c3ccccc3)nn2)ccc1-n1cnc(C)c1	132 nM	–	–	–	–
CCOc1nn(-c2ccccc2)c(NC(=O)N[C@@H]2CN(CCOC)C[C@H]2c2ccc(F)c(F)c2)c1C	1300 nM	6 nM	37200 nM	2.7 nM	2480 nM
CC(C)Oc1cc(Nc2nc(N[C@@H](C)c3ccc(F)cn3)ncc2Cl)n[nH]1	6.8 nM	–	–	–	7.2 nM
